Reference: US8691757B2 (Bristol-Myers Squibb Company, priority 2011, dated 2014)

Assays:
[1] = system: HCV genotype 1b (Con1) replicon in HUH-7 cells; experiment: HCV replicon luciferase reporter assay, genotype 1b; assay type: cell-based; conditions: Hepatitis C virus, 72 h, HCV genotype 1b replicon, 3 days incubation, Renilla luciferase, numeric values
Summary of the method: (§1)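 Stable HUH-7 replicon lines (1b Con1 with S1179I; 1a H77 with P1496L and S2204I) carrying Renilla luciferase were incubated 3 days at 37 °C with compound in 4% FCS, 0.5% DMSO. Luminescence was read after 2 h with 7.5 μM EnduRen, EC50 from four-parameter logistic fit; CC50 came from multiplexed Cell Titer-Blue (8 h).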

[2] = system: HCV genotype 1a (H77 strain) replicon in HUH-7 cells; experiment: HCV replicon luciferase reporter assay, genotype 1a; assay type: cell-based; conditions: Hepatitis C virus, 72 h, HCV genotype 1a replicon, 3 days incubation, Renilla luciferase, numeric values
Summary of the method: as §1

Molecule `COc1cnc(O[C@@H]2C[C@H]3C(=O)N[C@]4(C(=O)NS(=O)(=O)C5(C)CC5)C[C@H]4/C=C\[C@H](C)CCC[C@@H](C)[C@H](NC(=O)OC(C)(C)C(F)(F)F)C(=O)N3C2)c2ccccc12` [Compound 35, 1,1,1-trifluoro-2-methylpropan-2-yl (2R,6S,7R,11R,13aS,14aR,16aS,Z)-2-(4-methoxyisoquinolin-1-yloxy)-7,11-dimethyl-14a-(1-methylcyclopropylsulfonylcarbamoyl)-5,16-dioxo-1,2,3,5,6,7,8,9,10,11,13a,14,14a,15,16,16a-hexadecahydrocyclopropa[e]pyrrolo[1,2-a][1,4]diazacyclopentadecin-6-ylcarbamate] has an EC50 [1] of 0.51 nM and an EC50 [2] of 1.96 nM.
